Here are results for two molecules from publication PMC3564796, “Reversal of MRP7 (ABCC10)-Mediated Multidrug Resistance by Tariquidar” (PLoS ONE, 2013).

Assay [1] concerns the target T1, MRP7 (ABCC10) (Homo sapiens, UniProt Q5T3U5).
T1 construct: MRP7 expression vector stably transfected into HEK293 cells (HEK/MRP7); empty-vector HEK/pcDNA as control
T1 sequence (Q5T3U5 1-1492): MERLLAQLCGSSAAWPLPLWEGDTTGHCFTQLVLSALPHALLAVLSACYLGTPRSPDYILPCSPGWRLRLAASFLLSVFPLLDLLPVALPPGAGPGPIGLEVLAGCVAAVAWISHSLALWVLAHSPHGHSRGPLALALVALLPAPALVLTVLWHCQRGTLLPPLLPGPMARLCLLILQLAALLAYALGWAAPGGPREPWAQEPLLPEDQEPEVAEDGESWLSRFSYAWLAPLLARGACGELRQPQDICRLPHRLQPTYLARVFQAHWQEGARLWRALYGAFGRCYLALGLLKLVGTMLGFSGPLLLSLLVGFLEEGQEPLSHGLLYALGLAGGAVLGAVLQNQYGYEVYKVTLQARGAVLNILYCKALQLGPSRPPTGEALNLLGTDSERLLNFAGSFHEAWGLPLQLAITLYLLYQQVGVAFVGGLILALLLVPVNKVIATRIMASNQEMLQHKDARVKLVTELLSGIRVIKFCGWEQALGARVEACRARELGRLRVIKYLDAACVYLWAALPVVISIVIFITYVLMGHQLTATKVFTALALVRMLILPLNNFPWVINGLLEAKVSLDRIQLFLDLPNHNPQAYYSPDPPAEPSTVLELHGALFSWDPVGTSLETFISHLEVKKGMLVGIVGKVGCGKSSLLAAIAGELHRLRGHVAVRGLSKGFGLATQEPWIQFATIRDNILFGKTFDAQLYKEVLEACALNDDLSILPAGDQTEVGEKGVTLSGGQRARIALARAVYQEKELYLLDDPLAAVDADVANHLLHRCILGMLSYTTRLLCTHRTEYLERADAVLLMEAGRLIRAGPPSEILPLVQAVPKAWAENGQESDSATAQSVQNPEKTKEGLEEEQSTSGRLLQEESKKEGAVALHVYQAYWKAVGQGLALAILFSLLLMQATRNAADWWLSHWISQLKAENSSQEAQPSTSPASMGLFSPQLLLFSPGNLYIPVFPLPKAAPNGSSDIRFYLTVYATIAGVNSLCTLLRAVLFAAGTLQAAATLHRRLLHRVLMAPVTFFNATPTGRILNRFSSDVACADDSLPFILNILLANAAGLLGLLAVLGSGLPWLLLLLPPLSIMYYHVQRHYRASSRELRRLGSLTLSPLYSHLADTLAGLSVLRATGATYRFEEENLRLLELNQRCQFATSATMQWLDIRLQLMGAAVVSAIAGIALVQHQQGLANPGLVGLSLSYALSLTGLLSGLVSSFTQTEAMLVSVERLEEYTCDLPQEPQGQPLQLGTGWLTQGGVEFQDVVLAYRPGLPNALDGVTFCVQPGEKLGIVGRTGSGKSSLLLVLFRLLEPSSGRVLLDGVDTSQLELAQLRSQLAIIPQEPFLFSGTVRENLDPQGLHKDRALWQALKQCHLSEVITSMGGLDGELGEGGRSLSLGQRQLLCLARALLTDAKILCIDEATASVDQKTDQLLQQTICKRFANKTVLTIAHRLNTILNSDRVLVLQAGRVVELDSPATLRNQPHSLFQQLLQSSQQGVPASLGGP
The assay can be described thus: [3H]-paclitaxel accumulation in HEK/MRP7 cells. The class given is cell-based. Conditions: 4 h treatment; 0.01 µM [3H]-paclitaxel (methods; Figure 5 legend prints 0.1 µM); 37°C; inhibitor of efflux.

Assay [2] has as its target T1, MRP7 (ABCC10). As to the kind of experiment: cellular efflux time course, HEK/MRP7 versus HEK/pcDNA. The class given is cell-based. Particulars: labelled compound (3H); 0.01 µM; 37°C; 0-120 min.

Consider `COc1cc2c(cc1OC)CN(CCc1ccc(NC(=O)c3cc(OC)c(OC)cc3NC(=O)c3cnc4ccccc4c3)cc1)CC2` [Tariquidar], for which, on MRP7 (ABCC10) [1], the “fold [3H]-paclitaxel accumulation at 0.3 μM” value is given as 1.8 fold. In the case of `CC(=O)O[C@H]1C(=O)[C@@]2(C)[C@H]([C@H](OC(=O)c3ccccc3)[C@]3(O)C[C@H](OC(=O)[C@H](O)[C@@H](NC(=O)c4ccccc4)c4ccccc4)C(C)=C1C3(C)C)[C@]1(OC(C)=O)CO[C@@H]1C[C@@H]2O` [[^3H]-paclitaxel], the “cellular efflux time course, HEK/MRP7 versus HEK/pcDNA” value at MRP7 (ABCC10) [2] is “HEK/MRP7 cells, but not the parental HEK/pcDNA cells, rapidly effluxed [^3H]-paclitaxel”.
